Active and inactive are the calls of the source.

Assay [1] addresses Calcium/calmodulin-dependent protein kinase type II subunit delta (Homo sapiens, UniProt Q13557). The assay is classed as functional.
In assay [2] the target is Serine/threonine-protein kinase 3 (Homo sapiens, UniProt Q13188). The assay is classed as functional.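 Note: measured as one member of a kinome-wide kinase panel.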
In the next assay the target is Aurora kinase B (Homo sapiens, UniProt Q96GD4). The assay is classed as functional.
The target in assay [3] is T1, Ubiquitin-conjugating enzyme E2 N (Homo sapiens, UniProt P61088).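 Note: Dose-response confirmation in a TR-FRET assay detecting UBC13-driven polyubiquitin chain formation, inhibition measured.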
T1 sequence (P61088 whole entry): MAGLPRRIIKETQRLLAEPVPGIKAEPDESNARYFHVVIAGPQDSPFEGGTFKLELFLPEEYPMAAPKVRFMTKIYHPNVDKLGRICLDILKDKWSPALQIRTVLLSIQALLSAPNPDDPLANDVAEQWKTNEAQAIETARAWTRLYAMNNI
The format is functional.

Another assay deals with T2, Insulin-degrading enzyme (Homo sapiens, UniProt P14735).
T2 sequence (P14735 whole entry): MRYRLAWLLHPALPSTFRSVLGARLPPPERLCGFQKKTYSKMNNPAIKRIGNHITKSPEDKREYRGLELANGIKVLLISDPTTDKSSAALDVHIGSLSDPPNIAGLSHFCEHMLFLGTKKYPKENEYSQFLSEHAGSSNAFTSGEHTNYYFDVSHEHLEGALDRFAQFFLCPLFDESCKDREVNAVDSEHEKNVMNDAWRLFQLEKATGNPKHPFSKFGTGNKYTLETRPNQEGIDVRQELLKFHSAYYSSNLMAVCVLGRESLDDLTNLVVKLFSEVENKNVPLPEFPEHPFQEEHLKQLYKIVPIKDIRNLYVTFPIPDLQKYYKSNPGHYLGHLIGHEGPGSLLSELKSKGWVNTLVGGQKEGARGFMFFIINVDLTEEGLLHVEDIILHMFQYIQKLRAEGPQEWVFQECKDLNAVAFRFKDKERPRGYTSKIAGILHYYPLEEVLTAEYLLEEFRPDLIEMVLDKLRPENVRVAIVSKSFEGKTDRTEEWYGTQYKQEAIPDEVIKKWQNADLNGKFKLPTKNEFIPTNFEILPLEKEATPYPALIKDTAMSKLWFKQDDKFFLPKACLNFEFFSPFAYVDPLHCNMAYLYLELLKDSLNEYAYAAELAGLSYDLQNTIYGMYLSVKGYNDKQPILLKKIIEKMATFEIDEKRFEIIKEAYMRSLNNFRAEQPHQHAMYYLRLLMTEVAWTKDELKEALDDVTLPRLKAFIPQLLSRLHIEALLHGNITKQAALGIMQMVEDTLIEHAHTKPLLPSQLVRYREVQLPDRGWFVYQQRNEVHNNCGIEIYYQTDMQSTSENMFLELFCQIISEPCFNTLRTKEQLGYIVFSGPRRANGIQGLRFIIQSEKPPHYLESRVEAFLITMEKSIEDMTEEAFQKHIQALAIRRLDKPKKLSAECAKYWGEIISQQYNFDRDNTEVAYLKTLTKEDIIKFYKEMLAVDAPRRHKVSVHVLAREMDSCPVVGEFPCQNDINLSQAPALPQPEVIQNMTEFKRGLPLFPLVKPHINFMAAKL
Briefly: activators of endogenous IDE in HEK cells, dose response, cell-based, fluorescence polarization (AID 588439). The assay is classed as functional.

Assay [4] in a line: inhibitors of intracellular T. cruzi replication, confirmation, NIH3T3 host cells, beta-gal luminescence (AID 2044).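 Note: intracellular parasites grown in NIH/3T3 mouse fibroblasts as host cells; luminescent beta-galactosidase reporter signal from transgenic T. cruzi replicating inside host cells; inhibitors lower the luminescence signal.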 The format is functional, cell-based.
The target of assay [5] is T3, Replicative DNA helicase DnaB (Mycobacterium tuberculosis, UniProt P9WMR3).
T3 sequence (P9WMR3 whole entry): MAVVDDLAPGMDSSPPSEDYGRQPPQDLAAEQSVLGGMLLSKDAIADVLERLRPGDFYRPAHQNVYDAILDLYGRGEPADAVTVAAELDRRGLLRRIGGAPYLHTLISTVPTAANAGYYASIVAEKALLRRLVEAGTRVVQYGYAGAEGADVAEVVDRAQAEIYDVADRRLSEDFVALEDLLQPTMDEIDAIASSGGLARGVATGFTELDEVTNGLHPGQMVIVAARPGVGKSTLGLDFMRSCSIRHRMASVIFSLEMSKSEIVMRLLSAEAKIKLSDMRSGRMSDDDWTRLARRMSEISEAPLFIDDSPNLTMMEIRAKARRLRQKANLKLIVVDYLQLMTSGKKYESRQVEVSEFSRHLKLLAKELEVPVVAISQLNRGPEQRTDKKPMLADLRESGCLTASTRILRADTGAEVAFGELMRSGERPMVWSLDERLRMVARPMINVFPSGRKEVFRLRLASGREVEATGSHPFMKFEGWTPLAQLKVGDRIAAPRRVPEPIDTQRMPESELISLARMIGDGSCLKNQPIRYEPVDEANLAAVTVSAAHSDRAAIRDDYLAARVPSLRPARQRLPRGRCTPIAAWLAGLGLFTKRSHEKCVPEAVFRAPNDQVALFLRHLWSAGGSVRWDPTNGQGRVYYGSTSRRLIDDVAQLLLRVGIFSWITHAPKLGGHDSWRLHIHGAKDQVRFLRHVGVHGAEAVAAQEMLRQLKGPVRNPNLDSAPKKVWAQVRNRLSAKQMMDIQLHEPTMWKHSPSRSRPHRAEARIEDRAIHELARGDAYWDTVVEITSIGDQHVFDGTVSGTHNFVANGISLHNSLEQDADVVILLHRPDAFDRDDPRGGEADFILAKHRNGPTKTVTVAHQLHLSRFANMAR
Briefly: DnaB intein splicing inhibitors, dose response, biochemical, cell-free fluorescence (AID 449749). The assay is classed as functional.

Assay [6] concerns the target T4, Sentrin-specific protease 8 (Homo sapiens, UniProt Q96LD8).
T4 sequence (Q96LD8 whole entry): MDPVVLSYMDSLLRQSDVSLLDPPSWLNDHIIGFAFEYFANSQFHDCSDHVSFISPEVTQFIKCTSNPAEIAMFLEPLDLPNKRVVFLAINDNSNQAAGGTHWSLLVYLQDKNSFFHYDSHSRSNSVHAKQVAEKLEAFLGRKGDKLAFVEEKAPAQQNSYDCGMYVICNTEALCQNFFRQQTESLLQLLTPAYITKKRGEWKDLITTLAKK
The assay is classed as functional.

Assay [7] has as its target T4, Sentrin-specific protease 8. The assay is classed as functional. This is another data set of the same source.

Calcium/calmodulin-dependent protein kinase type II subunit delta, sequence (Q13557 whole entry): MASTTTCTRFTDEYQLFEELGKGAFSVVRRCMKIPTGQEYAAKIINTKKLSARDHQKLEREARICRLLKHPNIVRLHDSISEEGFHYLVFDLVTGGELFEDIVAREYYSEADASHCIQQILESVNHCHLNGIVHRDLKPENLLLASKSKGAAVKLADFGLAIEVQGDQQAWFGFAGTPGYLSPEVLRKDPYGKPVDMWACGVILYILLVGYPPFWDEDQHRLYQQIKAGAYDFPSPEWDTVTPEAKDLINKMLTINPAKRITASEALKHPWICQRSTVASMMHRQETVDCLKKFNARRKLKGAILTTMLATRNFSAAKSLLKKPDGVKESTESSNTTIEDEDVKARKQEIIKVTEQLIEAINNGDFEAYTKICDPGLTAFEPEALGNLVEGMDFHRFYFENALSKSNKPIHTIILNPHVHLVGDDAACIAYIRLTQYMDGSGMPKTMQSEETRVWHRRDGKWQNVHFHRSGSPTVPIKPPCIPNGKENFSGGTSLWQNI
Serine/threonine-protein kinase 3, sequence (Q13188 whole entry): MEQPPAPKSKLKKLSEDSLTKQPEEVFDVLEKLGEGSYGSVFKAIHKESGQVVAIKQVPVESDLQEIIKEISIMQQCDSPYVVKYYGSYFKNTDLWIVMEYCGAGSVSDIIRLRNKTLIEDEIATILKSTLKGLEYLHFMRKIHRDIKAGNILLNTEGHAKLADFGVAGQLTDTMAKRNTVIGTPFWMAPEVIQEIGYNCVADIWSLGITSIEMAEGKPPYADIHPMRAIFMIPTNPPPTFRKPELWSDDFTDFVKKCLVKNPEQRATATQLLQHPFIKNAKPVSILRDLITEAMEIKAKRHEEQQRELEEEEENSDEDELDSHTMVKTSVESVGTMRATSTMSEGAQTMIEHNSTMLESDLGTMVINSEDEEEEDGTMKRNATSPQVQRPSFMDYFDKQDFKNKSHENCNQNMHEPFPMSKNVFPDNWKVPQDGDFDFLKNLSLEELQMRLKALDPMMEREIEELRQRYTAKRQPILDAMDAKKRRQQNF
Aurora kinase B, sequence (Q96GD4 whole entry): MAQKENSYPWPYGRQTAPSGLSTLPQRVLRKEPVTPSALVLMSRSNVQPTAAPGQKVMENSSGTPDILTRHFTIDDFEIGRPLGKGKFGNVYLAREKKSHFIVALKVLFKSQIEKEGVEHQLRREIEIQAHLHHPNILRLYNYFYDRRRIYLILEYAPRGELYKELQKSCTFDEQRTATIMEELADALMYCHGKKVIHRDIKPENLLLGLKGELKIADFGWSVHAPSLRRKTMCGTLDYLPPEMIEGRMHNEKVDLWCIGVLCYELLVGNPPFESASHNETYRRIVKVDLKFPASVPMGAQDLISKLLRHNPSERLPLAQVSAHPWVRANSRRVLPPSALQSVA

As a reminder, the Ki is the dissociation constant of the complex between target and ligand, obtained from inhibition or displacement. For the molecule `O=C(Nc1cc(-c2c[nH]c3ncccc23)cc(Cl)n1)c1ccccc1`, the Ki in assay [1] and in [2] was > 3.16 µM (inactive) each time. With `Nc1c(-c2ccc(NC(=O)Nc3cccc(C(F)(F)F)c3)cc2)cnc2c(-c3ccc4c(c3)OCO4)cnn12`, the Ki on Aurora kinase B was 1 µM (active). A word on the IC50: it is the midpoint of a concentration-inhibition curve. Broadly, the EC50 is the concentration needed to bring the measured effect to its halfway point. For the molecule `CNC[C@H](Cc1ccccc1)NC[C@@H](Cc1cccc2ccccc12)NCCc1ccc(C)cc1`, the IC50 in [3] is 14.9 µM (active). In addition, the EC50 at Insulin-degrading enzyme was 7.52 µM (active). Consider `CCN1C(=Cc2sc3ccccc3[n+]2C)C=Cc2cccc(C)c21`, for which the EC50 in assay [4] was < 0.1 µM (active). As usually defined, the AC50 is the midpoint of the concentration-response curve, whichever way the signal moves. As to `O=C(Cc1ccccc1Cl)NC1(O)C(=O)c2ccccc2C1=O`, the AC50 in assay [5] is 7.96 µM (active). Take `Nc1nnc2c(n1)CCCC2`: the IC50 was 6.32 µM (active) in assay [6] and 2.98 µM (active) in assay [7].

Values taken from ChEMBL document CHEMBL1201862, “PubChem BioAssay data set” (2004).
